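Five concentrations, 48 hours, 96-well plates. At the GI50, growth is halved.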 Active and inactive are the calls of the source. Cut-off read from the data, not from the text of the source: active = GI50 up to about 1.1 µM and inactive = higher.
Tests used:
Assay in all cases: inhibition of tumour cell growth, NCI panel, 48 h
HOP-92 = tested on: HOP-92
CCRF-CEM = tested on: CCRF-CEM
OVCAR-3 = tested on: OVCAR-3
SNB-75 = tested on: SNB-75
NCI/ADR-RES = tested on: NCI/ADR-RES
CAKI-1 = tested on: CAKI-1
OVCAR-5 = tested on: OVCAR-5
HCT-116 = tested on: HCT-116
UACC-257 = tested on: UACC-257
LOX IMVI = tested on: LOX IMVI
OVCAR-8 = tested on: OVCAR-8
UO-31 = tested on: UO-31
U-251 = tested on: U-251
MCF7 = tested on: MCF7
NCI-H226 = tested on: NCI-H226
SK-MEL-5 = tested on: SK-MEL-5
M14 = tested on: M14
OVCAR-4 = tested on: OVCAR-4

Structure (SMILES)	GI50 (HOP-92)	GI50 (CCRF-CEM)	GI50 (OVCAR-3)	GI50 (SNB-75)	GI50 (NCI/ADR-RES)	GI50 (CAKI-1)	GI50 (OVCAR-5)	GI50 (HCT-116)	GI50 (UACC-257)	GI50 (LOX IMVI)	GI50 (OVCAR-8)	GI50 (UO-31)	GI50 (U-251)	GI50 (MCF7)	GI50 (NCI-H226)	GI50 (SK-MEL-5)	GI50 (M14)	GI50 (OVCAR-4)
Cc1ccc(C2NC(=O)c3ccccc3N2)c(C)c1 (stereo not drawn)	9.53 µM (inactive)	1.63 µM (inactive)	1.16 µM (inactive)	1.92 µM (inactive)	1.34 µM (inactive)	2.56 µM (inactive)	8.43 µM (inactive)	2.39 µM (inactive)	6 µM (inactive)	4.76 µM (inactive)	5.28 µM (inactive)	6.81 µM (inactive)	2.59 µM (inactive)	1.07 µM (active)	6.1 µM (inactive)	0.951 µM (active)	2.16 µM (inactive)	2.68 µM (inactive)
COc1ccc(-c2onc(-c3ccc([N+](=O)[O-])cc3)c2C2=NCCN2)cc1	–	> 100 µM (inactive)	> 100 µM (inactive)	20.9 µM (inactive)	–	> 100 µM (inactive)	> 100 µM (inactive)	36 µM (inactive)	18.5 µM (inactive)	79.6 µM (inactive)	> 100 µM (inactive)	29.6 µM (inactive)	67.6 µM (inactive)	–	95.1 µM (inactive)	83.6 µM (inactive)	> 100 µM (inactive)	60.1 µM (inactive)
COP(=O)(OC)/C(=C/c1cn(C(C)=O)c2ccccc12)NC(C)=O	> 10 µM (inactive)	16.7 µM (inactive)	21.3 µM (inactive)	49.2 µM (inactive)	28.8 µM (inactive)	40.9 µM (inactive)	> 100 µM (inactive)	26.4 µM (inactive)	> 100 µM (inactive)	13 µM (inactive)	32.2 µM (inactive)	–	33.2 µM (inactive)	8.91 µM (inactive)	–	22.1 µM (inactive)	41.8 µM (inactive)	33.2 µM (inactive)
COc1c2c(cc3c1C(=O)Cc1ccc4c(c1CN(C)CC3)OCO4)OCO2	5.71 µM (inactive)	70.5 µM (inactive)	> 100 µM (inactive)	26.4 µM (inactive)	–	79.3 µM (inactive)	29.3 µM (inactive)	52.2 µM (inactive)	> 100 µM (inactive)	> 100 µM (inactive)	> 100 µM (inactive)	12.2 µM (inactive)	86.9 µM (inactive)	–	59.2 µM (inactive)	40.3 µM (inactive)	74.3 µM (inactive)	75.5 µM (inactive)
CCC(c1ccc(OC)cc1)C1NC(=S)NC1=O (stereo not drawn)	> 50 µM (inactive)	> 50 µM (inactive)	> 50 µM (inactive)	> 50 µM (inactive)	> 50 µM (inactive)	> 50 µM (inactive)	> 50 µM (inactive)	> 50 µM (inactive)	> 50 µM (inactive)	> 50 µM (inactive)	> 50 µM (inactive)	> 50 µM (inactive)	> 50 µM (inactive)	> 50 µM (inactive)	> 50 µM (inactive)	> 50 µM (inactive)	> 50 µM (inactive)	> 50 µM (inactive)
NC1=C(N2CCOCC2)C(=O)NC2=N/C(=C\c3ccccc3)C(=O)N21	> 100 µM (inactive)	79.6 µM (inactive)	–	> 100 µM (inactive)	> 100 µM (inactive)	> 100 µM (inactive)	> 100 µM (inactive)	> 100 µM (inactive)	> 100 µM (inactive)	> 100 µM (inactive)	> 100 µM (inactive)	> 100 µM (inactive)	> 100 µM (inactive)	> 100 µM (inactive)	97.9 µM (inactive)	> 100 µM (inactive)	> 100 µM (inactive)	> 100 µM (inactive)
Cc1cc2c(=O)c3ccc(Cl)cc3[nH]c2c(C(=O)O)c1C	–	> 100 µM (inactive)	> 100 µM (inactive)	> 100 µM (inactive)	–	> 100 µM (inactive)	> 100 µM (inactive)	> 100 µM (inactive)	> 100 µM (inactive)	> 100 µM (inactive)	> 100 µM (inactive)	46.1 µM (inactive)	> 100 µM (inactive)	–	> 100 µM (inactive)	> 100 µM (inactive)	> 100 µM (inactive)	> 100 µM (inactive)
C[C@@H](NC(=O)OC1C=CC2(CC1)C(=O)N(C)c1ccccc12)c1cccc2ccccc12 (stereo partly drawn)	> 25 µM (inactive)	14.7 µM (inactive)	> 25 µM (inactive)	21.5 µM (inactive)	11.7 µM (inactive)	> 25 µM (inactive)	> 25 µM (inactive)	4.56 µM (inactive)	12.2 µM (inactive)	19.7 µM (inactive)	> 25 µM (inactive)	> 25 µM (inactive)	> 25 µM (inactive)	7.59 µM (inactive)	21.8 µM (inactive)	5.32 µM (inactive)	14.4 µM (inactive)	16.3 µM (inactive)
Cc1nc2c(nc1C)-c1[nH]c3c(c1C(=O)C2=O)CCCC3=O	1.69 µM (inactive)	1.91 µM (inactive)	–	1.77 µM (inactive)	2.25 µM (inactive)	–	2.18 µM (inactive)	2.54 µM (inactive)	2.02 µM (inactive)	0.957 µM (active)	1.5 µM (inactive)	4.02 µM (inactive)	1.34 µM (inactive)	1.38 µM (inactive)	1.62 µM (inactive)	1.49 µM (inactive)	1.77 µM (inactive)	1.6 µM (inactive)
COc1ccc(C(OC(C)=O)C2C(=C(C#N)C#N)c3ccccc3C2=C(C#N)C#N)cc1 (stereo not drawn)	45.1 µM (inactive)	21.8 µM (inactive)	21.6 µM (inactive)	36.1 µM (inactive)	50.1 µM (inactive)	39.6 µM (inactive)	17.2 µM (inactive)	35.1 µM (inactive)	> 100 µM (inactive)	33.9 µM (inactive)	60.7 µM (inactive)	28 µM (inactive)	41.9 µM (inactive)	48.3 µM (inactive)	38.6 µM (inactive)	48 µM (inactive)	40.7 µM (inactive)	32.4 µM (inactive)
O=C(Sc1c(-c2ccccc2)c(=O)n(-c2ccccc2)c(=S)n1-c1ccccc1)c1ccc(Cl)cc1	55.6 µM (inactive)	32.5 µM (inactive)	> 100 µM (inactive)	> 100 µM (inactive)	> 100 µM (inactive)	> 100 µM (inactive)	> 100 µM (inactive)	> 100 µM (inactive)	> 100 µM (inactive)	> 100 µM (inactive)	> 100 µM (inactive)	–	> 100 µM (inactive)	74.3 µM (inactive)	> 100 µM (inactive)	–	> 100 µM (inactive)	> 100 µM (inactive)
COc1cc(Br)c(CC2C3=C(CCN2C(=O)C2CCC2)CC(=O)CC3)cc1O (stereo not drawn)	20.4 µM (inactive)	25.5 µM (inactive)	23.6 µM (inactive)	26.8 µM (inactive)	27.5 µM (inactive)	–	> 100 µM (inactive)	30.3 µM (inactive)	27.9 µM (inactive)	47.8 µM (inactive)	38 µM (inactive)	55.6 µM (inactive)	42.7 µM (inactive)	–	41.9 µM (inactive)	28.6 µM (inactive)	33.4 µM (inactive)	–

From ChEMBL document CHEMBL1201862, “PubChem BioAssay data set” (2004)
